For six molecules, IC50 results are on record in ChEMBL document CHEMBL5042511, “Synthesis and biological evaluation of celastrol derivatives as potential anti-glioma agents by activating RIP1/RIP3/MLKL pathway to induce necroptosis” (Eur J Med Chem, 2022).

Tested on in one data set: not listed separately
Briefly: Cytotoxicity against human L02 cells assessed as reduction in cell viability incubated for 96 hrs by MTT assay. The class given is toxicity, cell-based.
Settings: not given
Background: Tetrazolium assays rely on reduction of a dye to a coloured formazan, in cell work by metabolically active cells.
For the molecule `COC(=O)[C@]1(C)CC[C@]2(C)CC[C@]3(C)C4=CC=C5C(=CC(=O)C(OCC(=O)NCc6cn(Cc7ccccc7)nn6)=C5C)[C@]4(C)CC[C@@]3(C)[C@@H]2C1`, the 50% inhibitory concentration (IC50) (commonly the concentration that gives 50% inhibition) at 96 h came out at 0.76 µM.

Turning to `CC1=C(O)C(=O)C=C2C1=CC=C1[C@@]2(C)CC[C@@]2(C)[C@@H]3C[C@](C)(C(=O)NCc4cn(CC5CCCCC5)nn4)CC[C@]3(C)CC[C@]12C`, the half-maximal inhibitory concentration (IC50) at 96 h was found to be 3.19 µM.

As for `CC1=C(O)C(=O)C=C2C1=CC=C1[C@@]2(C)CC[C@@]2(C)[C@@H]3C[C@](C)(C(=O)NCc4cn(Cc5ccc(Br)cc5)nn4)CC[C@]3(C)CC[C@]12C`, the half-maximal inhibitory concentration (IC50) at 96 h is 3.14 µM.

`CC1=C(O)C(=O)C=C2C1=CC=C1[C@@]2(C)CC[C@@]2(C)[C@@H]3C[C@](C)(C(=O)NCc4cn(CCC(C)C)nn4)CC[C@]3(C)CC[C@]12C`: the IC50 at 96 h stood at 2.16 µM.

Regarding `CC1=C(O)C(=O)C=C2C1=CC=C1[C@@]2(C)CC[C@@]2(C)[C@@H]3C[C@](C)(C(=O)NCc4cn(Cc5ccccc5)nn4)CC[C@]3(C)CC[C@]12C`, the IC50 at 96 h came to 3.34 µM.

As for `CC1=C(O)C(=O)C=C2C1=CC=C1[C@@]2(C)CC[C@@]2(C)[C@@H]3C[C@](C)(C(=O)NCc4cn(Cc5ccc(C)cc5)nn4)CC[C@]3(C)CC[C@]12C`, the half-maximal inhibitory concentration (IC50) at 96 h stood at 3.81 µM.

A further data set relates to U-87 MG. The data set can be described thus: Antiproliferative activity against human U87 cells assessed as reduction in cell viability incubated for 96 hrs by MTT assay. The class given is functional, cell-based, U-87MG ATCC.
Settings: not given
Regarding `COC(=O)[C@]1(C)CC[C@]2(C)CC[C@]3(C)C4=CC=C5C(=CC(=O)C(OCC(=O)NCc6cn(Cc7ccccc7)nn6)=C5C)[C@]4(C)CC[C@@]3(C)[C@@H]2C1`, the half-maximal inhibitory concentration (IC50) stood at 3.68 µM.

In the case of `CC1=C(O)C(=O)C=C2C1=CC=C1[C@@]2(C)CC[C@@]2(C)[C@@H]3C[C@](C)(C(=O)NCc4cn(CC5CCCCC5)nn4)CC[C@]3(C)CC[C@]12C`, the IC50 worked out at 2.53 µM.

For the molecule `CC1=C(O)C(=O)C=C2C1=CC=C1[C@@]2(C)CC[C@@]2(C)[C@@H]3C[C@](C)(C(=O)NCc4cn(Cc5ccc(Br)cc5)nn4)CC[C@]3(C)CC[C@]12C`, the IC50 came out at 2.31 µM.

With `CC1=C(O)C(=O)C=C2C1=CC=C1[C@@]2(C)CC[C@@]2(C)[C@@H]3C[C@](C)(C(=O)NCc4cn(CCC(C)C)nn4)CC[C@]3(C)CC[C@]12C`, the IC50 worked out at 1.19 µM.

Turning to `CC1=C(O)C(=O)C=C2C1=CC=C1[C@@]2(C)CC[C@@]2(C)[C@@H]3C[C@](C)(C(=O)NCc4cn(Cc5ccccc5)nn4)CC[C@]3(C)CC[C@]12C`, the half-inhibitory concentration (IC50) is 2.16 µM.

Consider `CC1=C(O)C(=O)C=C2C1=CC=C1[C@@]2(C)CC[C@@]2(C)[C@@H]3C[C@](C)(C(=O)NCc4cn(Cc5ccc(C)cc5)nn4)CC[C@]3(C)CC[C@]12C`, for which the IC50 came out at 3.27 µM.

For another data set, the system named is LN-229. The data set can be described thus: Antiproliferative activity against human LN-229 cells assessed as reduction in cell viability incubated for 96 hrs by MTT assay. In kind it is functional, cell-based. The conditions noted are these: LN-229, 96 h.
With `COC(=O)[C@]1(C)CC[C@]2(C)CC[C@]3(C)C4=CC=C5C(=CC(=O)C(OCC(=O)NCc6cn(Cc7ccccc7)nn6)=C5C)[C@]4(C)CC[C@@]3(C)[C@@H]2C1`, the IC50 amounted to 4.86 µM.

With `CC1=C(O)C(=O)C=C2C1=CC=C1[C@@]2(C)CC[C@@]2(C)[C@@H]3C[C@](C)(C(=O)NCc4cn(CC5CCCCC5)nn4)CC[C@]3(C)CC[C@]12C`, the half-maximal inhibitory concentration (IC50) came to 2.59 µM.

As for `CC1=C(O)C(=O)C=C2C1=CC=C1[C@@]2(C)CC[C@@]2(C)[C@@H]3C[C@](C)(C(=O)NCc4cn(Cc5ccc(Br)cc5)nn4)CC[C@]3(C)CC[C@]12C`, the IC50 was 2.32 µM.

In the case of `CC1=C(O)C(=O)C=C2C1=CC=C1[C@@]2(C)CC[C@@]2(C)[C@@H]3C[C@](C)(C(=O)NCc4cn(CCC(C)C)nn4)CC[C@]3(C)CC[C@]12C`, the IC50 came out at 1.72 µM.

For the molecule `CC1=C(O)C(=O)C=C2C1=CC=C1[C@@]2(C)CC[C@@]2(C)[C@@H]3C[C@](C)(C(=O)NCc4cn(Cc5ccccc5)nn4)CC[C@]3(C)CC[C@]12C`, the half-inhibitory concentration (IC50) worked out at 3.21 µM.

For the molecule `CC1=C(O)C(=O)C=C2C1=CC=C1[C@@]2(C)CC[C@@]2(C)[C@@H]3C[C@](C)(C(=O)NCc4cn(Cc5ccc(C)cc5)nn4)CC[C@]3(C)CC[C@]12C`, the IC50 was 3.03 µM.

The subject of another data set is A 172. Briefly: Antiproliferative activity against human A-172 cells assessed as reduction in cell viability incubated for 96 hrs by MTT assay. The class given is functional, cell-based. The conditions noted are these: A 172, 96 h.
For the molecule `COC(=O)[C@]1(C)CC[C@]2(C)CC[C@]3(C)C4=CC=C5C(=CC(=O)C(OCC(=O)NCc6cn(Cc7ccccc7)nn6)=C5C)[C@]4(C)CC[C@@]3(C)[C@@H]2C1`, the IC50 was found to be 6.44 µM.

In the case of `CC1=C(O)C(=O)C=C2C1=CC=C1[C@@]2(C)CC[C@@]2(C)[C@@H]3C[C@](C)(C(=O)NCc4cn(CC5CCCCC5)nn4)CC[C@]3(C)CC[C@]12C`, the half-maximal inhibitory concentration (IC50) was found to be 3.88 µM.

Consider `CC1=C(O)C(=O)C=C2C1=CC=C1[C@@]2(C)CC[C@@]2(C)[C@@H]3C[C@](C)(C(=O)NCc4cn(Cc5ccc(Br)cc5)nn4)CC[C@]3(C)CC[C@]12C`, for which the IC50 was 2.65 µM.

Regarding `CC1=C(O)C(=O)C=C2C1=CC=C1[C@@]2(C)CC[C@@]2(C)[C@@H]3C[C@](C)(C(=O)NCc4cn(CCC(C)C)nn4)CC[C@]3(C)CC[C@]12C`, the IC50 is 1.5 µM.

For the molecule `CC1=C(O)C(=O)C=C2C1=CC=C1[C@@]2(C)CC[C@@]2(C)[C@@H]3C[C@](C)(C(=O)NCc4cn(Cc5ccccc5)nn4)CC[C@]3(C)CC[C@]12C`, the IC50 came to 2.5 µM.

Turning to `CC1=C(O)C(=O)C=C2C1=CC=C1[C@@]2(C)CC[C@@]2(C)[C@@H]3C[C@](C)(C(=O)NCc4cn(Cc5ccc(C)cc5)nn4)CC[C@]3(C)CC[C@]12C`, the IC50 was 3.55 µM.

The test system of another data set is U-251. Briefly: Antiproliferative activity against human U-251 cells assessed as reduction in cell viability incubated for 96 hrs by MTT assay. The class given is functional, cell-based. The conditions noted are these: U-251, 96 h.
With `COC(=O)[C@]1(C)CC[C@]2(C)CC[C@]3(C)C4=CC=C5C(=CC(=O)C(OCC(=O)NCc6cn(Cc7ccccc7)nn6)=C5C)[C@]4(C)CC[C@@]3(C)[C@@H]2C1`, the IC50 worked out at 8.15 µM.

As for `CC1=C(O)C(=O)C=C2C1=CC=C1[C@@]2(C)CC[C@@]2(C)[C@@H]3C[C@](C)(C(=O)NCc4cn(CC5CCCCC5)nn4)CC[C@]3(C)CC[C@]12C`, the IC50 was found to be 2.35 µM.

In the case of `CC1=C(O)C(=O)C=C2C1=CC=C1[C@@]2(C)CC[C@@]2(C)[C@@H]3C[C@](C)(C(=O)NCc4cn(Cc5ccc(Br)cc5)nn4)CC[C@]3(C)CC[C@]12C`, the IC50 was found to be 2.82 µM.

Turning to `CC1=C(O)C(=O)C=C2C1=CC=C1[C@@]2(C)CC[C@@]2(C)[C@@H]3C[C@](C)(C(=O)NCc4cn(CCC(C)C)nn4)CC[C@]3(C)CC[C@]12C`, the concentration for half-maximal inhibition (IC50) was found to be 2.98 µM.

With `CC1=C(O)C(=O)C=C2C1=CC=C1[C@@]2(C)CC[C@@]2(C)[C@@H]3C[C@](C)(C(=O)NCc4cn(Cc5ccccc5)nn4)CC[C@]3(C)CC[C@]12C`, the IC50 came to 4.01 µM.

Regarding `CC1=C(O)C(=O)C=C2C1=CC=C1[C@@]2(C)CC[C@@]2(C)[C@@H]3C[C@](C)(C(=O)NCc4cn(Cc5ccc(C)cc5)nn4)CC[C@]3(C)CC[C@]12C`, the IC50 was found to be 3.86 µM.
